Measured values from US6914045B2, “Glycopeptide antibiotics” (Wyeth Holdings Corporation, priority 2001, dated 2005).
Converted amounts (≈) assume the structure as drawn. One block for each compound: values may come before it.

Tests used:
[1] = system: Enterococcus sp.; assay: in vitro antibacterial evaluation, MIC by broth dilution; type: cell-based; details: broth dilution, 18 hours at 35° C.
Outline: (§1)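 Broth dilution per NCCLS standard M7-A2 in Muller-Hinton II […], with an inoculum of 5×10^5 CFU/mL and antibiotic spanning 64-0.06 μg/mL. The MIC is the lowest concentration that inhibits growth of the organism.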

[2] = system: Staphylococcus sp.; assay: as above; type: cell-based; details: broth dilution, 18 hours at 35° C.; for MIC Staphylococcus aureus (ATCC 29213): strain ATCC 29213; for MIC Staphylococcus aureus (GC 1131): strain GC 1131; for MIC Staphylococcus aureus (GC 3051): strain GC 3051; for MIC Staphylococcus aureus (GC 3053): strain GC 3053; for MIC Staphylococcus aureus (GC 4541): strain GC 4541; for MIC Staphylococcus aureus (GC 4542): strain GC 4542; for MIC Staphylococcus aureus-SMITH (GC 4543): strain GC 4543; for MIC Staphylococcus aureus (GC 4544): strain GC 4544; for MIC Staphylococcus aureus (GC 4545): strain GC 4545; for MIC Staphylococcus haemolyticus (GC 4546): strain GC 4546; for MIC Coagulase Negative Staphylococcus (GC 4547): strain GC 4547; for MIC Coagulase Negative Staphylococcus (GC 4548): strain GC 4548; for MIC Coagulase Negative Staphylococcus (GC 4549): strain GC 4549; for MIC Coagulase Negative Staphylococcus (GC 4551): strain GC 4551; for MIC Coagulase Negative Staphylococcus (GC 6257): strain GC 6257
Outline: as §1

[3] = system: Streptococcus sp.; assay: as above; type: cell-based; details: broth dilution, 18 hours at 35° C.
Outline: as §1

[4] = anatomic pathology (histopathology of heart and kidney) in mice; type: in vivo; details: CD-1 mice, 20 mg/kg intravenously daily for 9 days, necropsy day 10, microscopic histopathology
Experimental: Samples of tissues from necropsied mice were formalin-fixed, paraffin-embedded, sectioned, stained with hematoxylin and eosin, and examined microscopically. Histopathologic findings were recorded. These findings were subjectively graded on a scale corresponding to slight, mild, moderate, marked and severe as compared to untreated controls.

[5] = system: Escherichia coli; assay: in vitro antibacterial evaluation, MIC by broth dilution; type: cell-based; details: 18 hours at 35° C.
Outline: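 Broth dilution in Muller-Hinton II medium per NCCLS standard M7-A2, with an inoculum of 5×10^5 CFU/mL and antibiotic tested over 64-0.06 μg/mL. MIC was taken as the lowest concentration inhibiting visible growth.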

MIC Enterococcus avium (GC 4558) ([1]; Enterococcus avium (GC 4558)): 128 µg/mL (≈ 89.5 µM) | MIC Enterococcus faecalis (ATCC 29212) ([1]; Enterococcus faecalis (ATCC 29212)): >128 µg/mL | MIC Enterococcus faecalis (GC 4552) ([1]; Enterococcus faecalis (GC 4552)): >128 µg/mL | MIC Enterococcus faecalis (GC 4553) ([1]; Enterococcus faecalis (GC 4553)): >128 µg/mL | MIC Enterococcus faecalis (GC 4554) ([1]; Enterococcus faecalis (GC 4554)): >128 µg/mL | MIC Enterococcus faecalis (GC 6189) ([1]; Enterococcus faecalis (GC 6189)): >128 µg/mL | MIC Enterococcus faecium (GC 2243) ([1]; Enterococcus faecium (GC 2243)): >128 µg/mL | MIC Enterococcus faecium (GC 4556) ([1]; Enterococcus faecium (GC 4556)): >128 µg/mL | MIC Enterococcus faecium (GC 4557) ([1]; Enterococcus faecium (GC 4557)): 128 µg/mL (≈ 89.5 µM) | MIC Enterococcus avium (GC 4558) [1]: 128 µg/mL (≈ 89.5 µM) | MIC Enterococcus faecalis (ATCC 29212) [1]: >128 µg/mL | MIC Enterococcus faecalis (GC 2242) [1]: >128 µg/mL | MIC Enterococcus faecalis (GC 2691) [1]: >128 µg/mL | MIC Enterococcus faecalis (GC 3059) [1]: >128 µg/mL | MIC Enterococcus faecalis (GC 4552) [1]: >128 µg/mL | MIC Enterococcus faecalis (GC 4553) [1]: >128 µg/mL | MIC Enterococcus faecalis (GC 4554) [1]: >128 µg/mL | MIC Enterococcus faecalis (GC 6189) [1]: >128 µg/mL | MIC Enterococcus faecium (GC 2243) [1]: >128 µg/mL | MIC Enterococcus faecium (GC 4556) [1]: >128 µg/mL | MIC Enterococcus faecium (GC 4557) [1]: 128 µg/mL (≈ 89.5 µM) | MIC Enterococcus faecalis (GC 2242) ([1]; strain GC 2242): >128 µg/mL | MIC Enterococcus faecalis (GC 2691) ([1]; strain GC 2691): >128 µg/mL | MIC Enterococcus faecalis (GC 3059) ([1]; strain GC 3059): >128 µg/mL | MIC Staphylococcus aureus (ATCC 29213) [2]: >128 µg/mL | MIC Staphylococcus aureus (GC 1131) [2]: >128 µg/mL | MIC Staphylococcus aureus (GC 3051) [2]: >128 µg/mL | MIC Staphylococcus aureus (GC 3053) [2]: >128 µg/mL | MIC Staphylococcus aureus (GC 4541) [2]: >128 µg/mL | MIC Staphylococcus aureus (GC 4542) [2]: >128 µg/mL | MIC Staphylococcus aureus-SMITH (GC 4543) [2]: >128 µg/mL | MIC Staphylococcus aureus (GC 4544) [2]: >128 µg/mL | MIC Staphylococcus aureus (GC 4545) [2]: >128 µg/mL | MIC Coagulase Negative Staphylococcus (GC 4547) [2]: >128 µg/mL | MIC Coagulase Negative Staphylococcus (GC 4548) [2]: >128 µg/mL | MIC Coagulase Negative Staphylococcus (GC 4549) [2]: >128 µg/mL | MIC Coagulase Negative Staphylococcus (GC 4551) [2]: >128 µg/mL | MIC Coagulase Negative Staphylococcus (GC 6257) [2]: >128 µg/mL | MIC Streptococcus agalactiae (GC 4564) [3]: 128 µg/mL (≈ 89.5 µM) | MIC Streptococcus pneumoniae (ATCC 6301) [3]: 128 µg/mL (≈ 89.5 µM) | MIC Streptococcus pneumoniae (GC 1894) [3]: 128 µg/mL (≈ 89.5 µM) | MIC Streptococcus pneumoniae (GC 4565) [3]: 128 µg/mL (≈ 89.5 µM) | MIC Streptococcus pyogenes (GC 4563) [3]: >128 µg/mL | MIC Streptococcus pneumoniae (ATCC 6301) ([3]; strain ATCC 6301): 128 µg/mL (≈ 89.5 µM) | MIC Streptococcus pneumoniae (GC 1894) ([3]; strain GC 1894): 128 µg/mL (≈ 89.5 µM) | MIC Streptococcus pyogenes (GC 4563) ([3]; strain GC 4563): >128 µg/mL | MIC Streptococcus agalactiae (GC 4564) ([3]; strain GC 4564): 128 µg/mL (≈ 89.5 µM) | MIC Streptococcus pneumoniae (GC 4565) ([3]; strain GC 4565): 128 µg/mL (≈ 89.5 µM) | MIC Escherichia coli (ATCC 25922) [5]: >128 µg/mL | MIC Escherichia coli (GC 4559) [5]: >128 µg/mL | MIC Escherichia coli (GC 4560) [5]: >128 µg/mL
Compound: CC(c1ccccc1)C1NC(=O)CNC(=O)C(CO)NC(=O)C(C(O)C2CN(Cc3ccc(C(=O)O)cc3)C(=N)N2C2OC(CO)C(O)C(O)C2O)NC(=O)C(C(O)C2CNC(=N)N2)NC(=O)C(Cc2ccc(OC3OC(CO)C(OC4OC(CO)C(O)C(O)C4O)C(O)C3O)cc2)NC1=O (stereo not drawn) [Example 69, Cyclo[glycyl-β-methylphenylalanyl-O-(4-O-hexopyranosylhexopyranosyl)tyrosyl-3-(2-iminoimidazolidin-4-yl)seryl-3-[1-(4-carboxybenzyl)-2-imino-3-hexopyranosylimidazolidin-4-yl]-serylseryl]]
MIC Staphylococcus haemolyticus (GC 4546) [2]: >128 µg/mL | Anatomical Pathology (Day 10), Heart [4]: 0 | Anatomical Pathology (Day 10), Kidney [4]: 0

MIC Enterococcus avium (GC 4558) [1]: >128 µg/mL | MIC Enterococcus faecalis (ATCC 29212) [1]: >128 µg/mL | MIC Enterococcus faecalis (GC 2242) [1]: >128 µg/mL | MIC Enterococcus faecalis (GC 2691) [1]: >128 µg/mL | MIC Enterococcus faecalis (GC 3059) [1]: >128 µg/mL | MIC Enterococcus faecalis (GC 4552) [1]: >128 µg/mL | MIC Enterococcus faecalis (GC 4553) [1]: >128 µg/mL | MIC Enterococcus faecalis (GC 4554) [1]: >128 µg/mL | MIC Enterococcus faecalis (GC 6189) [1]: >128 µg/mL | MIC Enterococcus faecium (GC 2243) [1]: >128 µg/mL | MIC Enterococcus faecium (GC 4556) [1]: >128 µg/mL | MIC Enterococcus faecium (GC 4557) [1]: >128 µg/mL | MIC Staphylococcus aureus (ATCC 29213) [2]: >128 µg/mL | MIC Staphylococcus aureus (GC 1131) [2]: >128 µg/mL | MIC Staphylococcus aureus (GC 3051) [2]: >128 µg/mL | MIC Staphylococcus aureus (GC 3053) [2]: >128 µg/mL | MIC Staphylococcus aureus (GC 4541) [2]: >128 µg/mL | MIC Staphylococcus aureus (GC 4542) [2]: >128 µg/mL | MIC Staphylococcus aureus-SMITH (GC 4543) [2]: >128 µg/mL | MIC Staphylococcus aureus (GC 4544) [2]: >128 µg/mL | MIC Staphylococcus aureus (GC 4545) [2]: >128 µg/mL | MIC Coagulase Negative Staphylococcus (GC 4547) [2]: >128 µg/mL | MIC Coagulase Negative Staphylococcus (GC 4548) [2]: >128 µg/mL | MIC Coagulase Negative Staphylococcus (GC 4549) [2]: >128 µg/mL | MIC Coagulase Negative Staphylococcus (GC 4551) [2]: >128 µg/mL | MIC Coagulase Negative Staphylococcus (GC 6257) [2]: >128 µg/mL | MIC Streptococcus agalactiae (GC 4564) [3]: >128 µg/mL | MIC Streptococcus pneumoniae (ATCC 6301) [3]: >128 µg/mL | MIC Streptococcus pneumoniae (GC 1894) [3]: >128 µg/mL | MIC Streptococcus pneumoniae (GC 4565) [3]: >128 µg/mL | MIC Streptococcus pyogenes (GC 4563) [3]: >128 µg/mL | MIC Escherichia coli (ATCC 25922) [5]: >128 µg/mL | MIC Escherichia coli (GC 4559) [5]: >128 µg/mL | MIC Escherichia coli (GC 4560) [5]: 128 µg/mL (≈ 91.9 µM)
Compound: CCCCCCCN1CC(C(O)C2NC(=O)C(C(O)C3CNC(=N)N3)NC(=O)C(Cc3ccc(OC4OC(CO)C(OC5OC(CO)C(O)C(O)C5O)C(O)C4O)cc3)NC(=O)C(C(C)c3ccccc3)NC(=O)CNC(=O)C(CO)NC2=O)N(C2OC(CO)C(O)C(O)C2O)C1=N (stereo not drawn) [Example 71, Cyclo[glycyl-β-methylphenylalanyl-O-(4-O-hexopyranosylhexopyranosyl)tyrosyl-3-(2-iminoimidazolidin-4-yl)seryl-3-[1-heptyl-3-hexopyranosyl-2-iminoimidazolidin-4-yl]serylseryl]]
MIC Staphylococcus haemolyticus (GC 4546) [2]: >128 µg/mL | Anatomical Pathology (Day 10), Heart [4]: 0 | Anatomical Pathology (Day 10), Kidney [4]: 0
